Data on eleven compounds can be found in BindingDB's records for doi:10.1021/acs.jmedchem.0c01316 (Agricultural University of Athens, 2020).

Structures are written as SMILES.

As a reminder, the IC50 is the concentration needed to halve the response being measured.

A short description of this assay: Inhibition of human RANKL-induced osteoclastogenesis in RANKL cultured mouse bone marrow cells assessed as reduction in RANKL/M-CSF-induced TRAP activity preincubated with RANKL for 1 hr followed by cell addition and subsequent media replenishment every 48 hrs for 4 days.
With `Cc1cc2occ(CN(C)CCN(C)Cc3cn(-c4cccc(C(F)(F)F)c4)c4ccccc34)c(=O)c2cc1C`, the IC50 came to 1 µM.

Take `CN(CCN(C)Cc1cn(S(=O)(=O)c2ccccc2)c2ccccc12)Cc1coc2ccccc2c1=O`: the IC50 is 2.5 µM.

Regarding `CN(CCN(C)C(=O)c1cn(-c2cccc([N+](=O)[O-])c2)c2ccccc12)C(=O)c1coc2ccccc2c1=O`, the IC50 was found to be 1.88 µM.

In the case of `CN(CCN(C)C(=O)c1cn(S(=O)(=O)c2ccccc2)c2ccccc12)C(=O)c1coc2ccccc2c1=O`, the IC50 was 2.86 µM.

On to `CN(CCN(C)C(=O)c1cn(S(=O)(=O)c2cccc([N+](=O)[O-])c2)c2ccccc12)C(=O)c1coc2ccccc2c1=O`, for which the half-maximal inhibitory concentration (IC50) was determined as 5.07 µM.

In the case of `CN(CCN(C)S(=O)(=O)c1ccccc1)C(=O)c1cn(S(=O)(=O)c2cccc([N+](=O)[O-])c2)c2ccccc12`, the IC50 was 2.7 µM.

As to `CN(CCN(C)S(=O)(=O)c1ccc(C#N)cc1)C(=O)c1cn(S(=O)(=O)c2cccc([N+](=O)[O-])c2)c2ccccc12`, the IC50 amounted to 2 µM.

For the compound `CN(CCN(C)S(=O)(=O)c1cccc([N+](=O)[O-])c1)C(=O)c1cn(S(=O)(=O)c2cccc([N+](=O)[O-])c2)c2ccccc12`, the IC50 was found to be 1.9 µM.

For the compound `O=C(c1cn(S(=O)(=O)c2cccc([N+](=O)[O-])c2)c2ccccc12)N1CCN(S(=O)(=O)c2ccccc2)CC1`, the IC50 was found to be 1.4 µM.

In the case of `N#Cc1ccc(S(=O)(=O)N2CCN(C(=O)c3cn(S(=O)(=O)c4cccc([N+](=O)[O-])c4)c4ccccc34)CC2)cc1`, the IC50 turned out to be 5.1 µM.

Turning to `O=C(c1cn(S(=O)(=O)c2cccc([N+](=O)[O-])c2)c2ccccc12)N1CCN(S(=O)(=O)c2cccc([N+](=O)[O-])c2)CC1`, the IC50 is 6.4 µM.
